Assay results reported in patent US8653092B2, “Tetrahydro-pyrido-pyrimidine derivatives” (Novartis AG, priority 2010, dated 2014).

How the values were obtained:
PI3K alpha = PI3K alpha (Homo sapiens (Human), UniProt P42336); assay: Enzymatic PI3K alpha isoform inhibition (lipid kinase, Kinase-Glo luminescence); format: biochemical; settings: enzymatic assay
PI3K delta = PI3K delta (Homo sapiens (Human), UniProt O00329); assay: Enzymatic PI3K delta isoform inhibition (lipid kinase, Kinase-Glo luminescence); format: biochemical; settings: enzymatic assay
PI3K delta, sequence (O00329 other isoform, or with tags, fused parts or gaps linker GGGGGG): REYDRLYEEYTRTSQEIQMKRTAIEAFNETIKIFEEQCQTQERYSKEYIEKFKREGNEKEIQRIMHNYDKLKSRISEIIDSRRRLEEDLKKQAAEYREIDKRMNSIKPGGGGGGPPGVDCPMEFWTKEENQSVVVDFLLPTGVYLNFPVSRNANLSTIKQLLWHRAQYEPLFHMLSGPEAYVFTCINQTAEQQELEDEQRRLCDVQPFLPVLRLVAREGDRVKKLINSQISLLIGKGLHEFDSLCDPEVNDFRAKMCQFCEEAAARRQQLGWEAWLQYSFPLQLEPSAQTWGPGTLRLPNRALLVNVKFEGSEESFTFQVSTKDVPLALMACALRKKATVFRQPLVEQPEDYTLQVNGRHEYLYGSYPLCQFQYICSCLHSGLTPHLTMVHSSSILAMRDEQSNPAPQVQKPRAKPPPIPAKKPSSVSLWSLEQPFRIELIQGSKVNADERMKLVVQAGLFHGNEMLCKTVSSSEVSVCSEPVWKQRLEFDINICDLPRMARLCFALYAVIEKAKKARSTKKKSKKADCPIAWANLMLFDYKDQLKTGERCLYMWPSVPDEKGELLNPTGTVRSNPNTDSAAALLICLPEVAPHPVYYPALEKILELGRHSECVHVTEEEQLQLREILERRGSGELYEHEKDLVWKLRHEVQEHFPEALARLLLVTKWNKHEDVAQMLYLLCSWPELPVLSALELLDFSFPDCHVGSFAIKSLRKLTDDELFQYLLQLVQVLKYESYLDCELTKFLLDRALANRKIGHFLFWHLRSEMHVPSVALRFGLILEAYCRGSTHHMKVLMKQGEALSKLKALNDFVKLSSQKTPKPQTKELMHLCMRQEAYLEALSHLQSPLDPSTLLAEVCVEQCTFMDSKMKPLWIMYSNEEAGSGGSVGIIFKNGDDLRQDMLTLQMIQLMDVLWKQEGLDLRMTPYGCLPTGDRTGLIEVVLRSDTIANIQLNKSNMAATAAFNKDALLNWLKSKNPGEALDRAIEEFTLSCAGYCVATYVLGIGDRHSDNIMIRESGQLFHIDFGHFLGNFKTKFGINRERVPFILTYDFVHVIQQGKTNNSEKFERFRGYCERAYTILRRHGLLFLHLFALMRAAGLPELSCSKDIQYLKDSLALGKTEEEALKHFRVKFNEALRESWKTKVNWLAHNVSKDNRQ

PI3K alpha, sequence (P42336 other isoform, or with tags, fused parts or gaps): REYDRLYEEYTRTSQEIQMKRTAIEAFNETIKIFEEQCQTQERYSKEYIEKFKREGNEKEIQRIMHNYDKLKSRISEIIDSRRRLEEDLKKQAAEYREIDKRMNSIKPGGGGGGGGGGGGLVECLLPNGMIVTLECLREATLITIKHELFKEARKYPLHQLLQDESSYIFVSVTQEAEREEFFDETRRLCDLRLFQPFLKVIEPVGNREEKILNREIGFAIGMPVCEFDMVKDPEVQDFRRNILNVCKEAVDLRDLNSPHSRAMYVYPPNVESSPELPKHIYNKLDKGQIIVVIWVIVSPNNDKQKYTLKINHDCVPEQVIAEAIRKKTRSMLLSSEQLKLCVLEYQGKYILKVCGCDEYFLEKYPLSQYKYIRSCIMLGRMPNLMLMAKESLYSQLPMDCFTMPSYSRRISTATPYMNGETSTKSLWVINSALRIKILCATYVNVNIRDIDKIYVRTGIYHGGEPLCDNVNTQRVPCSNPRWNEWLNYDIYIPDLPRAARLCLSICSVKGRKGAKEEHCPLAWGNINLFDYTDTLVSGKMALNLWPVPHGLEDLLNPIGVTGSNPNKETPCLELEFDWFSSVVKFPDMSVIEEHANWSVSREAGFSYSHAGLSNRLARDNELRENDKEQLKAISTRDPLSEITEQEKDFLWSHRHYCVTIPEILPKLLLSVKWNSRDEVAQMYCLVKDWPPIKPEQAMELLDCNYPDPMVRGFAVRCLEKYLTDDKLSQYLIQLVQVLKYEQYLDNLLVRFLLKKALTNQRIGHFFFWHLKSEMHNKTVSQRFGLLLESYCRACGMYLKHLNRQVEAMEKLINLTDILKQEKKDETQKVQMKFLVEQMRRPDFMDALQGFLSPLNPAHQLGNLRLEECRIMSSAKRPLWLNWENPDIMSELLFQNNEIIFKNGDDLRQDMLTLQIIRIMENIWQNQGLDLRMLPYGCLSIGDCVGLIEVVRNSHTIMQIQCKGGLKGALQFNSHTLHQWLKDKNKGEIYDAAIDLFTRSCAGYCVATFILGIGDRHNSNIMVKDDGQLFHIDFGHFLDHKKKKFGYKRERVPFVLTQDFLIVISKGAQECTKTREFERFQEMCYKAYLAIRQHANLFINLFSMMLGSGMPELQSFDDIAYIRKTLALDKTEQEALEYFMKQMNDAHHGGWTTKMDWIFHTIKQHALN

IC50 (PI3K alpha) | IC50 (PI3K delta) | SMILES
3410 nM | 40 nM | COc1ncc(N2CCc3ncnc(O[C@H]4CCN(C(=O)CC5CCOCC5)C4)c3C2)cc1C#N [Example 27, 2-Methoxy-5-{4-[(S)-1-(2-tetrahydro-pyran-4-yl-acetyl)-pyrrolidin-3-yloxy]-7,8-dihydro-5H-pyrido[4,3-d]pyrimidin-6-yl}-nicotinonitrile]
2580 nM | 11 nM | COc1ncc(N2CCc3ncnc(O[C@H]4CCN(C(=O)C5CCOC(C)(C)C5)C4)c3C2)cc1C#N (stereo partly drawn) [Example 29, 5-{4-[(S)-1-(2,2-Dimethyl-tetrahydro-pyran-4-carbonyl)-pyrrolidin-3-yloxy]-7,8-dihydro-5H-pyrido[4,3-d]pyrimidin-6-yl}-2-methoxy-nicotinonitrile]
2830 nM | 40 nM | COc1ncc(N2CCc3ncnc(O[C@H]4CCN(C(=O)c5ncoc5C)C4)c3C2)cc1C [Example 30, {(S)-3-[6-(6-Methoxy-5-methyl-pyridin-3-yl)-5,6,7,8-tetrahydro-pyrido[4,3-d]pyrimidin-4-yloxy]-pyrrolidin-1-yl}-(5-methyl-oxazol-4-yl)-methanone]
3020 nM | 21 nM | COc1ncc(N2CCc3ncnc(O[C@H]4CCN(C(=O)c5cnoc5C)C4)c3C2)cc1C [Example 31, {(S)-3-[6-(6-Methoxy-5-methyl-pyridin-3-yl)-5,6,7,8-tetrahydro-pyrido[4,3-d]pyrimidin-4-yloxy]-pyrrolidin-1-yl}-(5-methyl-isoxazol-4-yl)-methanone]
2040 nM | 23 nM | COc1ncc(N2CCc3ncnc(O[C@H]4CCN(C(=O)c5conc5C)C4)c3C2)cc1C [Example 32, {(S)-3-[6-(6-Methoxy-5-methyl-pyridin-3-yl)-5,6,7,8-tetrahydro-pyrido[4,3-d]pyrimidin-4-yloxy]-pyrrolidin-1-yl}-(3-methyl-isoxazol-4-yl)-methanone]
1970 nM | 18 nM | COc1ncc(N2CCc3ncnc(O[C@H]4CCN(C(=O)c5ccon5)C4)c3C2)cc1C [Example 33, Isoxazol-3-yl-{(S)-3-[6-(6-Methoxy-5-methyl-pyridin-3-yl)-5,6,7,8-tetrahydro-pyrido[4,3-d]pyrimidin-4-yloxy]-pyrrolidin-1-yl}-methanone]
1650 nM | 14 nM | COc1ncc(N2CCc3ncnc(O[C@H]4CCN(C(=O)c5ccno5)C4)c3C2)cc1C [Example 34, Isoxazol-5-yl-{(S)-3-[6-(6-Methoxy-5-methyl-pyridin-3-yl)-5,6,7,8-tetrahydro-pyrido[4,3-d]pyrimidin-4-yloxy]-pyrrolidin-1-yl}-methanone]
4230 nM | 49 nM | COc1ncc(N2CCc3ncnc(O[C@H]4CCN(C(=O)c5cscn5)C4)c3C2)cc1C#N [Example 35, 2-Methoxy-5-{4-[(S)-1-(thiazole-4-carbonyl)-pyrrolidin-3-yloxy]-7,8-dihydro-5H-pyrido[4,3-d]pyrimidin-6-yl}-nicotinonitrile]
4100 nM | 25 nM | COc1ncc(N2CCc3ncnc(O[C@H]4CCN(C(=O)c5cnn(C)c5)C4)c3C2)cc1C#N [Example 36, 2-Methoxy-5-{4-[(S)-1-(1-methyl-1H-pyrazole-4-carbonyl)-pyrrolidin-3-yloxy]-7,8-dihydro-5H-pyrido[4,3-d]pyrimidin-6-yl}-nicotinonitrile]
7020 nM | 31 nM | COc1ncc(N2CCc3ncnc(O[C@H]4CCN(C(=O)c5ccn(C)n5)C4)c3C2)cc1C#N [Example 37, 2-Methoxy-5-{4-[(S)-1-(1-methyl-1H-pyrazole-3-carbonyl)-pyrrolidin-3-yloxy]-7,8-dihydro-5H-pyrido[4,3-d]pyrimidin-6-yl}-nicotinonitrile]
3310 nM | 16 nM | COc1ncc(N2CCc3ncnc(O[C@H]4CCN(C(=O)C5CCOC(C)(C)C5)C4)c3C2)cc1C (stereo partly drawn) [Example 38, (2,2-Dimethyl-tetrahydro-pyran-4yl)-{(S)-3-[6-(6-Methoxy-5-methyl-pyridin-3-yl)-5,6,7,8-tetrahydro-pyrido[4,3-d]pyrimidin-4-yloxy]-pyrrolidin-1-yl}-methanone]
434 nM | 9 nM | COc1ncc(N2CCc3ncnc(O[C@H]4CCN(C(=O)C5CCS(=O)(=O)CC5)C4)c3C2)cc1C(F)(F)F [Example 39, (1,1-Dioxo-hexahydro-1lambda*6*-thiopyran-4-yl)-{(S)-3-[6-(6-methoxy-5-trifluoromethyl-pyridin-3-yl)-5,6,7,8-tetrahydro-pyrido[4,3-d]pyrimidin-4-yloxy]-pyrrolidin-1-yl}-methanone]
260 nM | 6 nM | COc1ncc(N2CCc3ncnc(O[C@H]4CCN(C(=O)c5oc(C)nc5C)C4)c3C2)cc1C(F)(F)F [Example 40, (2,4-Dimethyl-oxazol-5-yl)-{(S)-3-[6-(6-methoxy-5-trifluoromethyl-pyridin-3-yl)-5,6,7,8-tetrahydro-pyrido[4,3-d]pyrimidin-4-yloxy]-pyrrolidin-1-yl}-methanone]
515 nM | 14 nM | COc1ncc(N2CCc3ncnc(O[C@H]4CCN(C(=O)c5cncs5)C4)c3C2)cc1C(F)(F)F [Example 41, {(S)-3-[6-(6-Methoxy-5-trifluoromethyl-pyridin-3-yl)-5,6,7,8-tetrahydro-pyrido[4,3-d]pyrimidin-4-yloxy]-pyrrolidin-1-yl}-thiazol-5-yl-methanone]
863 nM | 13 nM | COc1ncc(N2CCc3ncnc(O[C@H]4CCN(C(=O)c5ccnn5C)C4)c3C2)cc1C(F)(F)F [Example 42, {(S)-3-[6-(6-Methoxy-5-trifluoromethyl-pyridin-3-yl)-5,6,7,8-tetrahydro-pyrido[4,3-d]pyrimidin-4-yloxy]-pyrrolidin-1-yl}-(2-methyl-2H-pyrazol-3-yl)-methanone]
728 nM | 16 nM | COc1ncc(N2CCc3ncnc(O[C@H]4CCN(C(=O)C5CNC(=O)C5)C4)c3C2)cc1C(F)(F)F (stereo partly drawn) [Example 43, 4-{(S)-3-[6-(6-Methoxy-5-trifluoromethyl-pyridin-3-yl)-5,6,7,8-tetrahydro-pyrido[4,3-d]pyrimidin-4-yloxy]-pyrrolidine-1-carbonyl}-pyrrolidin-2-one]
1190 nM | 16 nM | COc1ncc(N2CCc3ncnc(O[C@H]4CCN(C(=O)c5cccnc5)C4)c3C2)cc1C(F)(F)F [Example 44, {(S)-3-[6-(6-Methoxy-5-trifluoromethyl-pyridin-3-yl)-5,6,7,8-tetrahydro-pyrido[4,3-d]pyrimidin-4-yloxy]-pyrrolidin-1-yl}-pyridin-3-yl-methanone]
860 nM | 18 nM | COc1ncc(N2CCc3ncnc(O[C@H]4CCN(C(=O)c5c[nH]cn5)C4)c3C2)cc1C(F)(F)F [Example 45, (1H-Imidazol-4-yl)-{(S)-3-[6-(6-methoxy-5-trifluoromethyl-pyridin-3-yl)-5,6,7,8-tetrahydro-pyrido[4,3-d]pyrimidin-4-yloxy]-pyrrolidin-1-yl}-methanone]
803 nM | 27 nM | COc1ncc(N2CCc3ncnc(O[C@H]4CCN(C(=O)C5CCC(=O)N5)C4)c3C2)cc1C(F)(F)F (stereo partly drawn) [Example 46, 5-{(S)-3-[6-(6-Methoxy-5-trifluoromethyl-pyridin-3-yl)-5,6,7,8-tetrahydro-pyrido[4,3-d]pyrimidin-4-yloxy]-pyrrolidine-1-carbonyl}-pyrrolidin-2-one]
656 nM | 25 nM | COc1ncc(N2CCc3ncnc(O[C@H]4CCN(C(=O)c5ccncc5)C4)c3C2)cc1C(F)(F)F [Example 47, {(S)-3-[6-(6-Methoxy-5-trifluoromethyl-pyridin-3-yl)-5,6,7,8-tetrahydro-pyrido[4,3-d]pyrimidin-4-yloxy]-pyrrolidin-1-yl}-pyridin-4-yl-methanone]
518 nM | 29 nM | COc1ncc(N2CCc3ncnc(O[C@H]4CCN(C(=O)c5cn(C)nc5C)C4)c3C2)cc1C(F)(F)F [Example 48, (1,3-Dimethyl-1H-pyrazol-4-yl)-{(S)-3-[6-(6-methoxy-5-trifluoromethyl-pyridin-3-yl)-5,6,7,8-tetrahydro-pyrido[4,3-d]pyrimidin-4-yloxy]-pyrrolidin-1-yl}-methanone]
388 nM | 34 nM | COc1ncc(N2CCc3ncnc(O[C@H]4CCN(C(=O)c5cn[nH]c5)C4)c3C2)cc1C(F)(F)F [Example 49, {(S)-3-[6-(6-Methoxy-5-trifluoromethyl-pyridin-3-yl)-5,6,7,8-tetrahydro-pyrido[4,3-d]pyrimidin-4-yloxy]-pyrrolidin-1-yl}-(1H-pyrazol-4-yl)-methanone]
912 nM | 44 nM | COc1ncc(N2CCc3ncnc(O[C@H]4CCN(C(=O)c5nnc(C)o5)C4)c3C2)cc1C(F)(F)F [Example 51, {(S)-3-[6-(6-Methoxy-5-trifluoromethyl-pyridin-3-yl)-5,6,7,8-tetrahydro-pyrido[4,3-d]pyrimidin-4-yloxy]-pyrrolidin-1-yl}-(5-methyl-[1,3,4]oxadiazol-2-yl)-methanone]
1020 nM | 46 nM | COc1ncc(N2CCc3ncnc(O[C@H]4CCN(C(=O)c5cnccn5)C4)c3C2)cc1C(F)(F)F [Example 52, {(S)-3-[6-(6-Methoxy-5-trifluoromethyl-pyridin-3-yl)-5,6,7,8-tetrahydro-pyrido[4,3-d]pyrimidin-4-yloxy]-pyrrolidin-1-yl}-pyrazin-2-yl-methanone]
504 nM | 6 nM | COc1ncc(N2CCc3ncnc(O[C@H]4CCN(C(=O)c5cn(C)cn5)C4)c3C2)cc1C(F)(F)F [Example 53, {(S)-3-[6-(6-Methoxy-5-trifluoromethyl-pyridin-3-yl)-5,6,7,8-tetrahydro-pyrido[4,3-d]pyrimidin-4-yloxy]-pyrrolidin-1-yl}-(1-methyl-1H-imidazol-4-yl)-methanone]
384 nM | 5 nM | COc1ncc(N2CCc3ncnc(O[C@H]4CCN(C(=O)c5cnn(C)c5)C4)c3C2)cc1C(F)(F)F [Example 54, {(S)-3-[6-(6-Methoxy-5-trifluoromethyl-pyridin-3-yl)-5,6,7,8-tetrahydro-pyrido[4,3-d]pyrimidin-4-yloxy]-pyrrolidin-1-yl}-(1-methyl-1H-pyrazol-4-yl)-methanone]
